Consider three molecules from patent US20220281825A1 (priority 2016, published 2022).

The subject of one data set is LASV-p. The data set can be described thus: organism not typed. In kind it is cell-based, Lassa (LASV). The note with it: Vero, 24 h, read-out: LASV-p EC50 (nM).
The subject of a further data set is MACV-p. The data set is described as follows: organism not typed. In kind it is cell-based, Machupo (MACV). The note with it: Vero, 24 h, read-out: MACV-p EC50 (nM).
The subject of another data set is JUNV-p. The data set is described as follows: organism not typed. In kind it is cell-based, Junin (JUNV). The note with it: Vero, 24 h, read-out: JUNV-p EC50 (nM).
For a further data set, the system named is TCRV-p. The data set is described as follows: organism not typed. The class given is cell-based. The note with it: Vero, 24 h, read-out: TCRV-p EC50 (nM).
A further data set has as its system GTOV-p. The data set can be described thus: organism not typed. The note with it: Vero, 24 h, read-out: GTOV-p EC50 (nM). In kind it is cell-based, Guanarito (GTOV).
In a further data set the test system is VSV-p. The data set is described as follows: microbe, parasite or virus in culture. The class given is cell-based. The conditions noted are these: Vesicular stomatitis virus, Vero, 24 h, read-out: VSV-p EC50 (nM).
A further data set deals with LASV. The data set can be described thus: organism not typed. In kind it is cell-based, Lassa (LASV). The note with it: for EC50: 120 h, read-out: LASV EC50 uM.
The next data set concerns JUNV. The data set is described as follows: organism not typed. In kind it is cell-based, Junin (JUNV). The conditions noted are these: for EC50: 120 h, read-out: JUNV EC50 uM.
In data set [1] the test system is native replicating Tacaribe (TCRV) virus. The data set is described as follows: microbe, parasite or virus in culture. The class given is cell-based. The conditions noted are these: for EC50: Mammarenavirus tacaribeense, Vero, 120 h, read-out: TCRV EC50 uM.
The subject of another data set is LCMV. The data set is described as follows: microbe, parasite or virus in culture. The conditions noted are these: for EC90: Mammarenavirus choriomeningitidis, read-out: LCMV EC90 uM. The class given is cell-based, lymphocytic choriomeningitis virus (LCMV).
For data set [2] the following is noted: 1 h, pH 7.4.
For data set [3] the following is noted: guinea pig, 1 h, pH 7.4.
The conditions of data set [4]: 1 h, pH 7.4. This is another data set of the same source.
The conditions of data set [5]: 1 h, pH 7.4. The source holds these as a separate data set.
For data set [6] the following is noted: 1 h, pH 7.4. The source holds these as a separate data set.
The conditions of data set [7]: guinea pig, in vivo, 10 mg/kg.
Another data set in a line: in vivo. The conditions noted are these: guinea pig, po, 10 mg/kg.
Another data set is described as follows: in vitro. The conditions noted are these: African green monkey.
The target in a further data set is hERG channel (Homo sapiens, UniProt Q12809). The conditions noted are these: pH 7.4.
Sequence of hERG channel (Q12809 whole entry): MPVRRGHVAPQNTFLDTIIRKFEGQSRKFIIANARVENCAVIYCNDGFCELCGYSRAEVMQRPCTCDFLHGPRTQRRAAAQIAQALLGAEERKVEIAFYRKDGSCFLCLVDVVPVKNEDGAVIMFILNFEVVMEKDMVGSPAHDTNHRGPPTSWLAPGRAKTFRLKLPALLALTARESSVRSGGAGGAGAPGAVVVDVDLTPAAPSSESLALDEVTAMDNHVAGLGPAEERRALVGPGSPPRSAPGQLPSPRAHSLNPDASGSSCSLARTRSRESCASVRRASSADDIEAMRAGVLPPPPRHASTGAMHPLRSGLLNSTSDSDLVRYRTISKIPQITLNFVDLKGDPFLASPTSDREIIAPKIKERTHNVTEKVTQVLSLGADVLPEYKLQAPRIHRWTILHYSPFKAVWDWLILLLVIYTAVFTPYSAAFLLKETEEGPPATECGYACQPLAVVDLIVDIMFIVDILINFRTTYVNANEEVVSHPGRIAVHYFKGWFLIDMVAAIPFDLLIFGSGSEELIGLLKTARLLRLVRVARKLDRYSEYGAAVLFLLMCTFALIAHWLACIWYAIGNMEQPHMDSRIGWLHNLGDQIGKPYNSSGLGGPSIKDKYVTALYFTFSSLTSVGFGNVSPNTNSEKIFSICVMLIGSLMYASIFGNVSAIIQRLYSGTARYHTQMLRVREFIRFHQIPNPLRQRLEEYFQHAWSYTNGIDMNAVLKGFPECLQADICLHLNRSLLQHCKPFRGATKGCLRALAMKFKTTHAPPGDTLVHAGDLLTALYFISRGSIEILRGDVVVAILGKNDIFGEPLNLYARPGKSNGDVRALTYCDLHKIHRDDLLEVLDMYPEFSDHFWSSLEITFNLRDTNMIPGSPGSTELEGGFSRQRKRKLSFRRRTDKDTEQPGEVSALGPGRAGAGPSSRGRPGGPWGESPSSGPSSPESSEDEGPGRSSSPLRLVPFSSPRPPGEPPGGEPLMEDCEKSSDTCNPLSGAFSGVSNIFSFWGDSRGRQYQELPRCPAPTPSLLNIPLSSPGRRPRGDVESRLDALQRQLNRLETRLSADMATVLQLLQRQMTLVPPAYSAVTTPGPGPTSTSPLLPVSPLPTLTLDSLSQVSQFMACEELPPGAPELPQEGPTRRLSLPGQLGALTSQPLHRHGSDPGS
For data set [8] the following is noted: 1 h, pH 7.4. This is another data set of the same source.

What is called EC50 is the midpoint of the concentration-response curve. By EC90 is commonly meant the concentration at which the effect reaches the 90% level. For orientation: Cmax means the maximum level reached in the sampled fluid or tissue. For orientation: Tmax means the time from dosing to the highest level. The half-life is the time in which the quantity being followed falls by half. In the case of `CC(C)Oc1ccc(-n2cnc3ccc(-c4ccc(C(C)(C)O)cc4)cc32)cc1` [Example A17, 2-(4-{1-[4-(propan-2-yloxy)phenyl]-1H-1,3-benzodiazol-6-yl}phenyl)propan-2-ol], the EC50 with LASV-p was 1.1 nM; with MACV-p, 0.2 nM; in the data set with JUNV-p it was 0.2 nM; in the data set with TCRV-p, 0.6 nM; in the data set on GTOV-p, 0.52 nM; with VSV-p, over 1000 nM. The half-maximal effective concentration (EC50) in the data set with LASV is 0.06 µM; in the data set with JUNV, 0.115 µM; in data set [1], 0.023 µM. Also, in the data set on LASV, the “LASV SI” value is recorded as 249. The “JUNV SI” value in the data set with JUNV turned out to be 82. Moreover, the “TCRV SI50” value in data set [1] came to 609. The “LCMV SI90” value in the data set on LCMV is 12. Further, in the data set with LCMV, the EC90 is 0.71 µM. Further, the “Percent parent compound remaining at 60 minutes in liver microsomes, Human” value (“Percent parent compound remaining … Human” below) in data set [2] is given as 69%. For the same molecule, the “Percent parent compound remaining at 60 minutes in liver microsomes, Guinea” value (shortened to “Percent parent compound remaining … Guinea”) in data set [3] came out at 62%. Also, in [4], the “Percent parent compound remaining at 60 minutes in liver microsomes, Monkey” value (from here on “Percent parent compound remaining … Monkey”) was found to be 7%. In addition, the “Percent parent compound remaining at 60 minutes in liver microsomes, Rat” value (“Percent parent compound remaining … Rat” for short) in [5] is 86%. Further, the “Percent parent compound remaining at 60 minutes in liver microsomes, Mouse” value (from here on “Percent parent compound remaining … Mouse”) in data set [6] is 44%. Also, in data set [7], the oral exposure result is recorded as “demonstrated oral exposure”. Also, the “T ½” value in data set [7] (po) lay within 4 to 6 h. Besides, the concentration in “in vivo” peaked (Cmax) at 639 ng/mL. Also, the time of peak concentration (Tmax) in the data set “in vivo” turned out to be 1 h. In “in vivo”, this molecule came in with a half-life of 240 to 360 min. This molecule also gave a CC50 in the data set “in vitro” of 5.81 µM.
As for `CC(C)Oc1ccc(-c2cnc3ccc(-c4ccc(C(C)(C)O)cc4)cn23)cc1` [Example C1, 2-(4-{3-[4-(propan-2-yloxy)phenyl]imidazo[1,2-a]pyridin-6-yl}phenyl)propan-2-ol], the EC50 with LASV-p is 0.59 nM; in the data set with MACV-p, 0.7 nM; with JUNV-p, 0.82 nM; in the data set on TCRV-p, 1.45 nM; with GTOV-p, 0.08 nM; in the data set with VSV-p it was over 1000 nM. Further, the values for the EC50 (with LASV; in the data set with JUNV; in data set [1]) were 0.025 µM, 0.055 µM and 0.003 µM, respectively. In addition, the “LASV SI” value in the data set on LASV was determined as 921. For the same molecule, the “JUNV SI” value with JUNV came to 352. Besides, the “TCRV SI50” value in data set [1] is on record as 2500. Moreover, the “LCMV SI90” value in the data set with LCMV was determined as 37. Further, the EC90 in the data set on LCMV came to 0.82 µM. The “Percent parent compound remaining … Human” value in data set [2] came to 76%. Also, in [3], the “Percent parent compound remaining … Guinea” value is given as 42%. The “Percent parent compound remaining … Monkey” value in [4] is listed as 16%. In addition, in data set [5], the “Percent parent compound remaining … Rat” value is listed as 77%. Moreover, the “Percent parent compound remaining … Mouse” value in data set [6] came to 22%. For the same molecule, at hERG channel, the “hERG % Inhibition” value is listed as 55%. In “in vitro”, this molecule showed a CC50 of 7.52 µM.
In the case of `Cc1c(-c2ccc(OC(C)C)cc2)ccc2ncc(-c3ccc(OC(C)C)cc3)n12` [Example C51, 5-methyl-3,6-bis[4-(propan-2-yloxy)phenyl]imidazo[1,2-a]pyridine], the concentration giving a half-maximal response (EC50) was 0.31 nM in the data set on LASV-p; 0.13 nM in the data set with MACV-p; 0.15 nM in the data set on JUNV-p; 0.37 nM in the data set with TCRV-p; 0.21 nM in the data set with GTOV-p. In data set [2], the “Percent parent compound remaining … Human” value is 100%. Besides, the “Percent parent compound remaining … Guinea” value in data set [3] was 95%. Further, the “Percent parent compound remaining … Monkey” value in data set [4] is 21%. In data set [5], the “Percent parent compound remaining … Rat” value stood at 75%. The “Percent parent compound remaining … Mouse” value in data set [6] turned out to be 92%. In [8], the “Percent parent compound remaining at 60 minutes in liver microsomes, Dog” value was 82%. Besides, the “hERG % Inhibition” value at hERG channel was determined as 49%. The same molecule showed a CC50 in “in vitro” of 4.19 µM.
